Series [1] concerns cortical ACh release. The settings on record: in vivo; cited from earlier work.
Series [2] has as its system PD patients. The conditions noted are these: clinical; cited from earlier work.
The test system of series [3] is monkeys. The settings on record: cited from earlier work.
The test system of series [4] is choice accuracy deficits (CADS) due to scopolamine. The conditions noted are these: radial arm maze; cited from earlier work.
The test system of series [5] is rodents. The settings on record: cited from earlier work; for retention of win-stay and win-shift tasks: Packard and White, 1989.
The test system of series [6] is dopamine D1 receptor. The conditions noted are these: cited from earlier work.
For series [7], the system named is adenylate cyclase. The conditions noted are these: cited from earlier work.
For series [8], the system named is animals. The settings on record: cited from earlier work; for memory-improving effect of nigrostriatal self-stimulation or of d-amphetamine (blockade): in vivo.
Series [9] concerns acetylcholine release in the frontal cortex. In words: In vivo microdialysis, frontal cortex ACh release. The conditions noted are these: injection of DHX. On the set-up: species or system Male Sprague-Dawley rats. An excerpt: The in vivo microdialysis technique is a method for evaluating the effects of drugs on brain neurotransmitter systems by monitoring the extracellular concentration of neurotransmitters and metabolites in awake freely-moving animals. Probes are implanted directly into the brain of rats and serve to continuously sample the extracellular fluid in the vicinity of the probe. Samples containing the dialyzed extracellular fluid are collected at the outlet of the perfusion system and analyzed for content of brain neurotransmitters and metabolites by high-performance liquid chromatography coupled with electrochemical detection (HPLC-EC). […]
The probe was perfused continuously with artificial CSF (composition in Mm: 121 NaCl, 3.5 KCl, 1.2 CaCl2, 1.2 MgCl2, 1.0 NaH2 PO4, 25 NaHCO3, and 0.001 neostigmine) at a flow rate of 1.5 ul/min. […] A 20 ul aliquot was analyzed immediately for acetylcholine (ACh) content by high-performance liquid chromatography with electrochemical detection (HPLC-EC) (see below for details). […]
DHX and SKF 81297, another D1 agonist (Andersen et al., Eur J Pharmacol 188:335, 1990), were administered ip after a stable baseline of ACh release was established in each animal. […] The effects of DHX on ACh release were evaluated in two brain regions associated with cognition (striatum, frontal cortex). […]

For series [10], the system named is 6-OHDA-lesioned rats. Nature of the series: Rotational behavior in 6-OHDA-lesioned rats (rodent model of PD). The class given is in vivo, rat. The conditions noted are these: 10 mg/kg. An excerpt:
(§1) The test protocol followed is disclosed in Ungerstedt, Acta Physiol. Scand. 82 Supp. 367, p. 49-68 (1971). […] This activity may reside in one or more optical isomers of such a metabolite.

Series [11] relates to striatal acetylcholine. In words: In vivo microdialysis, striatal ACh release. The conditions noted are these: for dialysate concentrations of striatal ACh / duration of increase of dialysate concentrations of striatal ACh: i.p.; for duration of increase of dialysate concentrations of striatal ACh: post-injection. On the set-up: species or system Male Sprague-Dawley rats. An excerpt: The in vivo microdialysis technique is a method for evaluating the effects of drugs on brain neurotransmitter systems by monitoring the extracellular concentration of neurotransmitters and metabolites in awake freely-moving animals. Probes are implanted directly into the brain of rats and serve to continuously sample the extracellular fluid in the vicinity of the probe. Samples containing the dialyzed extracellular fluid are collected at the outlet of the perfusion system and analyzed for content of brain neurotransmitters and metabolites by high-performance liquid chromatography coupled with electrochemical detection (HPLC-EC).
Male Sprague-Dawley rats weighing 250-350 g were group housed (n=3 per cage) in a temperature-controlled room (23±2° C.) on a 14/10 hr light cycle with free access to food and water. After the surgical procedure, animals were placed in individual cages.
The surgical procedure involved the implantation and fixation of a probe holder/guide cannula to the skull of anesthetized rats. The guide cannula was the attachment site for the rigid concentric microdialysis probes which were implanted into the awake, fully-recovered rat at the onset of the experiment. […] For placement of the guide cannulae, rats were anesthetized with ketamine:xylazine (87:13 mg/kg), shaved and placed in a stereotaxic frame (Narashige Instruments). An incision was made to expose the skull and a small hole was drilled to expose the dura mater for placement of the guide. Guide cannulae were implanted in the striatum according to the following stereotaxic coordinates with reference to bregma: AP -+1.5 mm, L -+2.6 mm and V to dura -2.5 mm (Paxinos and Watson, The rat brain in stereotaxic coordinates, 2nd. ed., Academic Press, London, 1986). The microdialysis probe extended 3.0 mm beyond the tip of the guide cannula which yielded a final ventral placement of 5.5 mm below the dura. The coordinates for placement of the guide into frontal cortex were: AP -+3.0 mm, L -+2.8 mm and V to dura 0 mm, with the probe extending 3.0 mm below the dura. Guide cannulae were fixed to the skull with dental acrylic and anchor screws and a dummy cannula was inserted into each guide for the recovery period. Animals were returned to their home cage and allowed to recover from surgery for 24-48 hrs.
For each experiment, the dialysis probe was connected to a microinfusion pump (CMA-100; Bioanalytical Systems (BAS); W. Lafayette, Ind.) equipped with a liquid switch (CMA-110; BAS) via low dead volume fused-silica tubing (I.D.=75 um; O.D.=150 um). At the time of experiment, the dummy cannula was removed and the probe was inserted through the guide into the conscious animal under light restraint.
The probe was perfused continuously with artificial CSF (composition in Mm: 121 NaCl, 3.5 KCl, 1.2 CaCl2, 1.2 MgCl2, 1.0 NaH2 PO4, 25 NaHCO3, and 0.001 neostigmine) at a flow rate of 1.5 ul/min. Dialysate samples were collected every 20 min (total sample volume=30 μl). A 20 ul aliquot was analyzed immediately for acetylcholine (ACh) content by high-performance liquid chromatography with electrochemical detection (HPLC-EC) (see below for details). A baseline period of at least one hour was allowed prior to invoking any experimental manipulations. […] Sample collection proceeded for a minimum of 3 hrs following drug administration. Upon completion of the experiment, animals were sacrificed by decapitation and brains examined grossly to verify probe placement.
DHX and SKF 81297, another D1 agonist (Andersen et al., Eur J Pharmacol 188:335, 1990), were administered ip after a stable baseline of ACh release was established in each animal. […] The effects of DHX on ACh release were evaluated in two brain regions associated with cognition (striatum, frontal cortex).

The nature of series [12]: Concentration of DHX in brain and plasma over time. The format is in vivo, rat. The conditions noted are these: 10 mg/kg.
Text: as §1

For series [13], the system named is scopolamine-induced deficits (rats). In words: Passive avoidance in rats, scopolamine-induced amnesia (step-through latency). The conditions noted are these: scopolamine 3.0 mg/kg.
In series [14] the test system is MPTP-induced parkinsonism model in primates. The conditions noted are these: cited from earlier work.
Series [15] concerns striatal ACh output. The settings on record: cited from earlier work.

Entries after “also recorded” stand apart in the source; their conditions may differ. Read-outs that look alike come from different tables or passages of the source.

These results are taken from US5744476A, “Dopamine D1 agonists for the treatment of dementia” (Interneuron Pharmaceuticals, Inc., priority 1994, dated 1998).

For `CN1Cc2ccccc2C2c3cccc4[nH]cc(c34)CC21` (single isomer, unassigned) [CY 208-243], the “cortical ACh release” value in [1] is on record as “significantly increased cortical ACh release”.
In the case of `CCCN1C[C@H](CSC)C[C@@H]2c3cccc4[nH]cc(c34)C[C@H]21` [pergolide], the “efficacy in the treatment of PD” value in series [2] is listed as “either limited efficacy relative to levodopa or limited long-term efficacy”.
`Oc1cc2c(cc1O)C(c1ccccc1)CNCC2` (stereo not shown) [SKF38393]: the spatial working memory result in series [3] (aged and reserpine-treated monkeys) was “improved spatial working memory in aged and reserpine-treated monkeys”. The “choice accuracy deficits due to scopolamine” value in series [4] is “alleviated choice accuracy deficits (CADS) due to scopolamine”. For the same compound, the “retention of win-stay and win-shift tasks” value in series [5] was “but not SKF38393, improved retention of the tasks”. Further, the “selectivity for the D1 over the D2 receptor” value in [6] is given as “greater than 10 fold”. Further, the “efficacy in stimulating adenylate cyclase relative to dopamine” value in series [7] (as efficacious as dopamine) is 30-50%.
As for `CC(C)C[C@H]1C(=O)N2CCC[C@H]2[C@]2(O)O[C@](NC(=O)[C@@H]3C=C4c5cccc6[nH]c(Br)c(c56)C[C@H]4N(C)C3)(C(C)C)C(=O)N12` [bromocriptine], the “efficacy in the treatment of PD” value in series [2] was “either limited efficacy relative to levodopa or limited long-term efficacy”.
Consider `NCCc1cc(O)c(O)cc1O` [6-OHDA, 6-hydroxydopamine], for which, in [8] (avoidance conditioning, Morris water maze), the “learning tasks after lesion of the nigrostriatal tract” value is recorded as “impair a variety of learning tasks”. In addition, the “memory-improving effect of nigrostriatal self-stimulation or of d-amphetamine (blockade)” value in series [8] was “blocked”.
Turning to `Oc1cc2c(cc1O)[C@@H]1c3ccccc3CN[C@H]1CC2` (relative stereo) [DHX, trans-10,11-dihydroxy-5,6,6a,7,8,12b-hexahydrobenzo[a]phenanthridine], the “ACh release in the frontal cortex” value in [9] was “increase in acetylcholine release in the frontal cortex; also recorded: increased ACh release in the frontal cortex”. In addition, the “biological activity in a rodent model of PD (rotational behavior), persistence” value in series [10] is “persists long after the levels of DHX in the brain and plasma have diminished”. Also, in series [11] (3.0 mg/kg), the “dialysate concentrations of striatal ACh” value is reported as “increase in dialysate concentration of striatal acetylcholine; also recorded: increase dialysate concentrations of striatal ACh” and the “duration of increase of dialysate concentrations of striatal ACh” value is “at least 180 min”. Besides, in series [11] (10 mg/kg), the “dialysate concentrations of striatal ACh” value was “increase in dialysate concentration of striatal acetylcholine; also recorded: increase dialysate concentrations of striatal ACh” and the “duration of increase of dialysate concentrations of striatal ACh” value was “at least 180 min”. In addition, in series [11] (17.5 mg/kg), the “striatal ACh release” value is “appears to be less than that evoked by lower doses”. For the same compound, the spatial working memory entry in [3] (young, intact monkeys) was “produced improvements in young, intact monkeys”. The “levels of DHX in the brain and plasma” value in series [12] is listed as “diminished”. Besides, the “affinity for D1 receptor” value in series [6] (D1) is “nanomolar affinity”. Besides, in [6], the “selectivity for the D1 over the D2 receptor” value is on record as 12- to 60 fold. The step-through latency entry in [13] (DHX 0.1 mg/kg) is “increased step-through latency, however, these increases were not statistically-significant”. In addition, in series [13] (DHX 0.3 mg/kg, 10 min prior to training), the “step-through latency (reversal of scopolamine-induced deficits)” value is “significantly improve scopolamine-induced deficits; also recorded: significantly improved scopolamine-induced deficits in step-through latency”. Also, the step-through latency result in series [13] (DHX 1.0 mg/kg) is “increased step-through latency, however, these increases were not statistically-significant”. Also, in series [14] (0.3 to 0.93 mg/kg, im), the eye blink rates result is reported as “increasing eye blink rates” and the “parkinsonian signs (tremor, motor freezing, abnormal posture, rigidity, bradykinesia)” value is recorded as “dramatically attenuated parkinsonian signs”. For the same compound, in [14] (primates), the “activity in the MPTP-induced parkinsonism model” value is recorded as “potent activity in the MPTP-induced parkinsonism model in primates”. In addition, the “potency in the stimulation of adenylate cyclase versus dopamine” value in [7] (versus dopamine) was “approximately 70 times more potent”. The “efficacy in the stimulation of adenylate cyclase versus dopamine” value in series [7] (versus dopamine, in words) is reported as “as efficacious”.
In the case of `CN1[C@@H]2C[C@@H](OC(=O)[C@H](CO)c3ccccc3)C[C@H]1[C@@H]1O[C@@H]12` [Scopolamine], the “acquisition of the passive avoidance task (deficit)” value in series [13] (ip, 30 min prior to training) is “severe deficit in the acquisition of the passive avoidance task”.
For the compound `CCCN1CCO[C@@H]2c3cc(O)ccc3CC[C@H]21` [PHNO], in series [1], the “cortical ACh release” value is given as “no effect”.
With `Oc1cc2c(cc1O)[C@@H](c1ccccc1)CNCC2` [(+)-SKF 38393], the “increase of striatal ACh output” value in [15] (systemic administration) was 75%.
Take `N[C@@H](Cc1ccc(O)c(O)c1)C(=O)O` [levodopa]: the “efficacy in the treatment of PD” value in series [2] is “allowed PD patients to reach normal life expectancies”.
On to `CCCN1CCC[C@@H]2Cc3n[nH]cc3C[C@H]21` [quinpirole], for which the “striatal ACh release” value in series [11] (2.0 mg/kg, data not shown) is recorded as “decreases striatal ACh release”.
Take `CCN1CCC[C@H]1CNC(=O)c1c(O)c(Cl)cc(Cl)c1OC` [raclopride]: in series [15] (administered 60 min after SKF 38393), the “effect of D1 agonist on striatal ACh output (potentiation)” value was “potentiated”.
As for `Oc1cc2c(c(Cl)c1O)CCNCC2c1ccccc1` (stereo not shown) [SKF 81297], the “dialysate concentrations of striatal ACh” value in [11] (3.0 mg/kg) was “increase in dialysate concentration of striatal acetylcholine; also recorded: elevated striatal ACh release”.
In the case of `C[C@H](N)Cc1ccccc1` [d-amphetamine], the “retention of win-stay and win-shift tasks” value in series [5] was “improved retention of the tasks”. Also, the win-stay acquisition result in series [5] (post-training intracaudate injection) is on record as “improved win-stay acquisition”. Also, the memory improvement result in series [8] (indirect dopamine agonist) was “memory-improving effects”.
As to `O=c1[nH]c2ccccc2n1C1CCN(CCCC(c2ccc(F)cc2)c2ccc(F)cc2)CC1` [pimozide], the “memory-improving effect of nigrostriatal self-stimulation or of d-amphetamine (blockade)” value in series [8] is listed as “blocked”.
